Source: patent US6605297B2, “Substances having antiobese and visceral fat-reducing functions and utilization thereof” (Janiftec, Inc., priority 1998, dated 2003)

Columns and labels:
UCP = experiment: Amount of UCP in interscapular BAT mitochondria fraction by western blotting; assay type: in vivo, rat; settings: Example 3; 0.5% in feed, rats 7 weeks; relative value, control group = 100
Procedure: (§1) After being reared for 7 weeks, the laboratory animals were fasted for 20 hours. […] Then mesenteric fat, perinephric fat, peritesticular fat, and interscapular brown fat were recovered and weighed and the brown fat was submitted to determinations of the amount of UCP. The plasma was obtained from blood by conventional methods and serum triglycerides, cholesterol, and phospholipid concentrations were determined. The amount of UCP was determined by the following method.
Interscapular BAT extracted from rats was homogenized with 200 mM sucrose (comprising 10 mM Tris-HCl at pH of 7.5; 2 mM EDTA), centrifuged for 5 minutes at 3,100 rpm and 4° C. using a centrifugator on a cold table, and the supernatent thereof was further centrifuged for 10 minutes at 12,000 rpm and 4° C. The precipitate thus obtained (mitochondria fraction) was served as the sample.
Polyacrylamide gel electrophoresis was performed with 11% separated gel, and 50 μg sample protein were submitted to analysis from each lane. As the electrophoresis conditions, migration for 10 minutes at 100 V and then for 1 hour at 200 V were adopted. […] After rinsing, the UCP band was detected on X-ray film with a chemiluminescence method detection reagent (Dupont). The darkness of the band on the film was read with a scanner and digitized by a computer. […]

[1] = tested on: mesenteric fat, perinephric fat, peritesticular fat, interscapular brown fat; experiment: 7-week feeding study in rats: weight of mesenteric, perinephric, peritesticular and interscapular brown fat; assay type: in vivo, Sprague-Dawley male rats; settings: Example 3; 0.5% in feed plus 8.5% lard, rats 7 weeks
Procedure: (§2) After acclimation for 1 week on basic feed (F-2, Funabashi Farms Co., Ltd.) using 7-week-old Sprague-Dawley male rats, 7 rats per group were placed in the following 3 groups so that average body weight of each group would be the same and reared for 7 weeks. Rearing environment was adjusted to a temperature of 22 to 24° C. and humidity of 50 to 60%, with 12 hours of light and dark each (light time: 8:00 to 20:00, dark time: 20:00 to 8:00). Feed was supplied in restricted amounts and body weight was determined each week.
(§3) The components, including proteins, sugars, etc., were the same and the lipids were adjusted to 10% for each group. […]
as §1
Then the mesenteric fat, perinephric fat, peritesticular fat, and interscapular brown fat were collected and weight was determined, and the brown fat was submitted to determinations of the amount of UCP.

[2] = 7-week feeding study in rats: body weight, feed ingested, symptoms; assay type: in vivo, Sprague-Dawley male rats; settings: Example 3; 0.5% in feed plus 8.5% lard, rats 7 weeks
Procedure: as §2, §3, §1
With the exception that 8.5% lard was added to 0.5% starting DHA ethyl ester and served as the control group, and 8.5% lard was added to 0.5% coupled DHA ethyl ester and served as the coupled DHA ethyl group, the feed was in accordance with Example 1. […]

For `CC/C=C\C/C=C\C/C=C\C/C=C\C/C=C\C/C=C\CCC(=O)OCC` [Control group, DHA ethyl ester], which UCP (UCP) is on record?
Its UCP is 100 ± 8.

What about the “Brown fat per body weight” value [1] of the same molecule?
Its value is 0.073 ± 0.015%.

And the “Mesenteric fat per body weight” value [1]?
Its value is 1.01 ± 0.20 b %.

What about the “Total intra-abdominal fat per body weight” value [1] of the same molecule?
Its value is 5.29 ± 0.93 b %.

And the Body weight [2]?
The Body weight was 515.8 ± 29 b g.
